Source: patent US20240327417A1, “HETEROCYCLIC COMPOUNDS” (BeiGene Switzerland GmbH, priority 2021, published 2024)

How the values were obtained:
[1] = target: T1, Full length DGKζ (in-house protein M1-V929) (Homo sapiens, UniProt Q13574); assay: Biochemical DGK IC50 assay (ADP-Glo, lipid micelle substrate), DGKζ; conditions: 0.5 nM enzyme, 140 μM ATP, 80 μM DAG, 1 hour preincubation, 1 hour reaction, room temperature, read-out: IC50s for DGKζ
T1 construct: His (N); TEV cleavage site (N); made in house; host or cells: Sf9 insect cells (baculovirus, Bac-to-Bac)
Method in brief: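 In-house full-length human DGKζ, baculovirus-expressed in Sf9 cells, was assayed with a DAG/PS lipid micelle substrate at room temperature. Buffer was 50 mM HEPES, 10 mM MgCl2, 0.01% BSA, 0.1 mM Na3VO4, 0.005% Tween-20, 0.01 mM CaCl2, with final compound 1.55˜10000 nM or 23.3˜150000 nM.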

[2] = target: T2, Full length DGKα (D21-10BG, SignalChem) (Homo sapiens, UniProt P23743); assay: Biochemical DGK IC50 assay (ADP-Glo, lipid micelle substrate), DGKα; conditions: 7.5 nM enzyme, 140 μM ATP, 80 μM DAG, 1 hour preincubation, 1 hour reaction, room temperature, read-out: IC50s for DGKα
T2 construct: Full length DGKα (D21-10BG, SignalChem); purchased SignalChem D21-10BG
Method in brief: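 Full-length enzyme was assayed by ADP-Glo on DAG/PS lipid micelles at room temperature in HEPES/MgCl2/CaCl2 buffer with BSA, Na3VO4 and Tween-20, using a 1 h reaction and luminescence read-out.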

T2 sequence (P23743 whole entry): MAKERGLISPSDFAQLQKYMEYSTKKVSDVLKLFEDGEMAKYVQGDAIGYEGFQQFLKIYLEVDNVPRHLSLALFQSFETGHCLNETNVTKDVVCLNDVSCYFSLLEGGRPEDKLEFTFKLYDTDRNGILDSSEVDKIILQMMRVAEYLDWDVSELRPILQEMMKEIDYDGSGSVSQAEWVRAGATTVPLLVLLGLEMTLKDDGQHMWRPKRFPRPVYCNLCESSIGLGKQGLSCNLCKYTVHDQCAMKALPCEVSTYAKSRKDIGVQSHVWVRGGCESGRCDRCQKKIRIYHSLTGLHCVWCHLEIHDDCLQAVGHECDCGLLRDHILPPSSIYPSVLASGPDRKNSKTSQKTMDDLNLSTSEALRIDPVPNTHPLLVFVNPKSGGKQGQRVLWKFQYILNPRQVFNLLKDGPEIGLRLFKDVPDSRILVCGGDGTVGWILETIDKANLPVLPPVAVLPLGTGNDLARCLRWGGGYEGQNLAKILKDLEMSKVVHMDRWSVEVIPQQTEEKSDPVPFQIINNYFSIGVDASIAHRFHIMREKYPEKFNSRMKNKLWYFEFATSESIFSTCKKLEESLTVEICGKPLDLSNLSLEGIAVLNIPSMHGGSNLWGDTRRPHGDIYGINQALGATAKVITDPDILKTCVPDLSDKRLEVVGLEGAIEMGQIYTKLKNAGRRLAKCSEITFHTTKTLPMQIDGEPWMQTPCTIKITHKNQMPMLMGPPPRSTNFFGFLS
T1 sequence (Q13574 1-929 isoform Q13574-4): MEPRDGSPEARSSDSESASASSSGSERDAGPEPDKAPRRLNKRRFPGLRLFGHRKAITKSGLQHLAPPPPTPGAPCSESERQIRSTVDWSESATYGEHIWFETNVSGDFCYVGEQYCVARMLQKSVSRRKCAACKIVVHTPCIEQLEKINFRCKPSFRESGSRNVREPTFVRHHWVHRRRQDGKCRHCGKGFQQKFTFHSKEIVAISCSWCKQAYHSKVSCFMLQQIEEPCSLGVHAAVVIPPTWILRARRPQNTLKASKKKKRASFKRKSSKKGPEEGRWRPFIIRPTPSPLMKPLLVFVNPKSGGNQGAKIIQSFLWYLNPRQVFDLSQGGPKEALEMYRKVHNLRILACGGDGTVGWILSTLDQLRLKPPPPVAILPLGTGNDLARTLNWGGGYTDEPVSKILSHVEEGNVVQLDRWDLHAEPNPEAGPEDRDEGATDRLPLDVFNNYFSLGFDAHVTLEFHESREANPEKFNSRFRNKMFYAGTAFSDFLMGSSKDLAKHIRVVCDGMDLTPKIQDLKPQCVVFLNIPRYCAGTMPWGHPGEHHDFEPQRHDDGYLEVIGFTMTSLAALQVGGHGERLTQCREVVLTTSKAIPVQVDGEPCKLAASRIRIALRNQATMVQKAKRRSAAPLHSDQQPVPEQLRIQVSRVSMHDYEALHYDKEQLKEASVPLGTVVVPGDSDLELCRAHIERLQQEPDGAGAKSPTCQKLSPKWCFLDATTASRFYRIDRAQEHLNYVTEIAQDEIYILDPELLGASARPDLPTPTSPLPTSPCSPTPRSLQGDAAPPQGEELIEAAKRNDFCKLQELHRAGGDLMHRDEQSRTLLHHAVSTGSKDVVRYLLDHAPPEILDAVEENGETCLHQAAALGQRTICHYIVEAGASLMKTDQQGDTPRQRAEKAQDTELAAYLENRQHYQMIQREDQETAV

CC[C@H]1CN(C(C)c2ccc3nc(C)sc3n2)[C@H](C)CN1c1cc(=O)n(C)n2cc(CC#N)nc12 (single isomer, unassigned) [Compound A121b]
IC50 [1]: 143 nM
IC50 [2]: 50 nM

CC[C@H]1CN(C(C)c2ccc3nc(C)sc3c2F)[C@H](C)CN1c1cc(=O)n(C)n2cc(CC#N)nc12 (single isomer, unassigned) [Compound A119a]
IC50 [1]: 1460 nM
IC50 [2]: 2050 nM

CC#CCc1cn2c(n1)c(N1C[C@@H](CC)N(C(C)c3ccc4nc(C)sc4n3)C[C@@H]1CC)cc(=O)n2C (single isomer, unassigned) [Compound A115b]
IC50 [1]: 49 nM
IC50 [2]: 2.7 nM

CC#CCc1cn2c(n1)c(N1C[C@@H](CC)N(C(C)c3ccc4nc(C)sc4c3F)C[C@@H]1CC)cc(=O)n2C (single isomer, unassigned) [Compound A116a]
IC50 [1]: 132 nM
IC50 [2]: 118 nM

CC(c1ccc2c(c1)OC(C)(C)CO2)N1C[C@H](C)N(c2c(C#N)c(=O)n(C)n3cc(CC#N)nc23)C[C@H]1C (single isomer, unassigned) [Compound A27a]
IC50 [1]: 3 nM
IC50 [2]: 2250 nM

CC(C#N)c1cn2c(n1)c(N1C[C@@H](C)N(C(C)c3ccc4nccnc4c3)C[C@@H]1C)cc(=O)n2C (stereo partly drawn) [Compound A6, 2-(8-((2S,5R)-2,5-dimethyl-4-(1-(quinoxalin-6-yl)ethyl)piperazin-1-yl)-5-methyl-6-oxo-5,6-dihydroimidazo[1,2-b]pyridazin-2-yl)propanenitrile]
IC50 [1]: > 10000 nM
IC50 [2]: > 10000 nM

CC[C@H]1CN(C(C)c2ccc(C3CC3)nc2F)[C@H](CC)CN1c1cc(=O)n(C)n2cc(CC#N)nc12 (single isomer, unassigned) [Compound A42a]
IC50 [1]: 57 nM
IC50 [2]: 339 nM

CCC(c1ccc2nc(C)sc2n1)N1C[C@H](CC)N(c2cc(=O)n(C)n3cc(CC#N)nc23)C[C@H]1CC (single isomer, unassigned) [Compound A99a]
IC50 [1]: 132 nM
IC50 [2]: 196 nM

CC[C@H]1CN(C(C)c2ccc(C(F)(F)F)cc2)[C@H](CC)CN1c1cc(=O)n(C)n2cc(CC#N)nc12 (single isomer, unassigned) [Compound A91b]
IC50 [1]: 1430 nM
IC50 [2]: 319 nM

CC[C@@H]1CN(c2cc(=O)n(C)n3cc(CC#N)nc23)[C@@H](C)CN1C(C)c1cc2sc(C)nc2cc1F (single isomer, unassigned) [Compound A60a]
IC50 [1]: 189 nM
IC50 [2]: 826 nM

CC[C@H]1CN(C(C)c2ccc3nc(CC4CC4)sc3n2)[C@H](CC)CN1c1cc(=O)n(C)n2cc(CC#N)nc12 (single isomer, unassigned) [Compound A110b]
IC50 [1]: 15 nM
IC50 [2]: 61 nM

CC(c1ccc2c(c1)OCCO2)N1C[C@H](C)N(c2cc(=O)n(C)n3cc(CC#N)nc23)C[C@H]1C (stereo partly drawn) [Compound A24, 2-(8-((2S,5R)-4-(1-(2,3-dihydrobenzo[b][1,4]dioxin-6-yl)ethyl)-2,5-dimethylpiperazin-1-yl)-5-methyl-6-oxo-5,6-dihydroimidazo[1,2-b]pyridazin-2-yl)acetonitrile]
IC50 [1]: 230 nM
IC50 [2]: 2870 nM

[2H]C([2H])([2H])n1c(=O)cc(N2C[C@@H](CC)N(C(C)c3ccc4nc(C)sc4c3)C[C@@H]2CC)c2nc(CC#N)cn21 (single isomer, unassigned) [Compound A94a]
IC50 [1]: 24 nM
IC50 [2]: 108 nM

CC[C@H]1CN(C(C)c2ccc3nc(C)sc3n2)[C@H](CC)CN1c1c(Br)c(=O)n(C)n2cc(CC#N)nc12 (stereo partly drawn) [Compound A83, 2-(7-bromo-8-((2S,5R)-2,5-diethyl-4-(1-(2-methylthiazolo[5,4-b]pyridin-5-yl)ethyl)piperazin-1-yl)-5-methyl-6-oxo-5,6-dihydroimidazo[1,2-b]pyridazin-2-yl)acetonitrile]
IC50 [1]: > 10000 nM
IC50 [2]: 42600 nM

CC[C@H]1CN(C(C)c2ccc3ncsc3c2F)[C@H](CC)CN1c1cc(=O)n(C)n2cc(CC#N)nc12 (single isomer, unassigned) [Compound A62a]
IC50 [1]: 8.5 nM
IC50 [2]: 105 nM

CCC(c1ccc(C(F)(F)F)cc1)N1C[C@H](CC)N(c2cc(=O)n(C)n3cc(CC#N)nc23)C[C@H]1CC (single isomer, unassigned) [Compound A77a]
IC50 [1]: 255 nM
IC50 [2]: 102 nM

CC[C@@H]1CN(c2c(C#N)c(=O)n(C)n3cc(CC#N)nc23)[C@@H](C)CN1C(C)c1ccc2nc(C)sc2n1 (single isomer, unassigned) [Compound A113a]
IC50 [1]: 118 nM
IC50 [2]: 185 nM

CC[C@@H]1CN(c2cc(=O)n(C)n3cc(C=NOC)nc23)[C@@H](C)CN1C(C)c1ccc2nccnc2c1 (single isomer, unassigned) [Compound A9c]
IC50 [1]: > 10000 nM
IC50 [2]: 2170 nM

CC[C@H]1CN(C(C)c2ccc3ncsc3c2)[C@H](CC)CN1c1cc(=O)n(C)n2cc(CC#N)nc12 (stereo partly drawn) [Compound A53, 2-(8-((2S,5R)-4-(1-(benzo[d]thiazol-6-yl)ethyl)-2,5-diethylpiperazin-1-yl)-5-methyl-6-oxo-5,6-dihydroimidazo[1,2-b]pyridazin-2-yl)acetonitrile]
IC50 [1]: 6.5 nM
IC50 [2]: 24 nM

CC#CCc1cn2c(n1)c(N1C[C@@H](CC)N(C(C)c3ccc4nc(C)sc4c3)C[C@@H]1C)cc(=O)n2C (stereo partly drawn) [Compound A69, 2-(but-2-yn-1-yl)-8-((2S,5R)-5-ethyl-2-methyl-4-(1-(2-methylbenzo[d]thiazol-6-yl)ethyl)piperazin-1-yl)-5-methylimidazo[1,2-b]pyridazin-6(5H)-one]
IC50 [1]: 1440 nM
IC50 [2]: 263 nM

COC(C)c1cn2c(n1)c(N1C[C@@H](C)N(C(C)c3ccc4nccnc4c3)C[C@@H]1C)cc(=O)n2C (stereo partly drawn) [Compound A5, 8-((2S,5R)-2,5-dimethyl-4-(1-(quinoxalin-6-yl)ethyl)piperazin-1-yl)-2-(1-methoxyethyl)-5-methylimidazo[1,2-b]pyridazin-6(5H)-one]
IC50 [1]: 11000 nM
IC50 [2]: 22000 nM

CCC(c1ccc(C2CC2)nc1)N1C[C@H](CC)N(c2cc(=O)n(C)n3cc(CC#N)nc23)C[C@H]1CC (single isomer, unassigned) [Compound A89b]
IC50 [1]: 1010 nM
IC50 [2]: 1520 nM

CC[C@@H]1CN(c2cc(=O)n(C)n3cc(CC#N)nc23)[C@@H](COC)CN1C(C)c1ccc2nc(C)sc2n1 (single isomer, unassigned) [Compound A108a]
IC50 [1]: > 10000 nM
IC50 [2]: 6400 nM

CC[C@H]1CN(C(CCOC)c2ccc3nc(C)sc3c2)[C@H](CC)CN1c1cc(=O)n(C)n2cc(CC#N)nc12 (single isomer, unassigned) [Compound A102b]
IC50 [1]: 623 nM
IC50 [2]: 735 nM

CC[C@H]1CN(C(C)c2ccc(C3CC3(F)F)nc2)[C@H](CC)CN1c1cc(=O)n(C)n2cc(CC#N)nc12 (single isomer, unassigned) [Compound A70a]
IC50 [1]: 244 nM
IC50 [2]: 102 nM

CC[C@H]1CN(C(C)c2ccc3nc(C)sc3c2)[C@H](CC)CN1c1cc(=O)n(C)n2cc(C=NOC)nc12 (single isomer, unassigned) [Compound A123d]
IC50 [1]: > 10000 nM
IC50 [2]: 749 nM

CC[C@H]1CN(C(C)c2ccc3cc(F)sc3n2)[C@H](CC)CN1c1cc(=O)n(C)n2cc(CC#N)nc12 (single isomer, unassigned) [Compound A105a]
IC50 [1]: 706 nM
IC50 [2]: 195 nM

[2H]C([2H])([2H])C(c1ccc2nc(C)sc2c1)N1C[C@H](CC)N(c2cc(=O)n(C([2H])([2H])[2H])n3cc(CC#N)nc23)C[C@H]1CC (single isomer, unassigned) [Compound A95a]
IC50 [1]: 27 nM
IC50 [2]: 101 nM
